Data on 69 molecules can be found in PubChem BioAssay AID1549 (Sanford-Burnham Center for Chemical Genomics, 2009).

Calls of active or inactive are those of the source. No rule for the calls is given here.

For the test, the target named is Influenza A virus M2 proton channel (A/TW/4845/1999 H1N1). The test is described as follows: NMR binding screen, influenza A virus M2 proton channel, Kd (AID 1549). The conditions noted are these: M2 protein.
By Kd is commonly meant a measure of binding affinity in units of concentration. For `CC1=C(C(N)=O)C(c2cccs2)C(C(N)=O)=C(C)N1`, the Kd is > 4 mM (inactive).

For `CCC1(CC)C(=O)N=C(N)NC1=O`, the Kd was > 4 mM (inactive).

For the molecule `CC[C@]12CCCN3CCc4c(n(c5ccccc45)[C@](O)(C(=O)OC)C1)[C@@H]32`, the Kd is > 4 mM (inactive).

As to `OCC1=Cc2ccccc2OC1`, the Kd is > 4 mM (inactive).

As for `O=C(O)Cn1c(=O)sc2ccccc21`, the Kd was > 4 mM (inactive).

Consider `CC(=O)OCC(OC(C)=O)C(OC(C)=O)C(OC(C)=O)C(OC(C)=O)C(COC(C)=O)OC(C)=O` (centres undefined), for which the Kd was > 4 mM (inactive).

On to `CC(C)CC(=O)NC1CCSC1=O` (centres undefined), for which the Kd is > 4 mM (inactive).

As to `CC(=O)OC1CCC2(O)CC1(C)CCC1C2CC1(C)C` (centres undefined), the Kd is > 4 mM (inactive).

Consider `COC(CC(=O)O)c1nc2ccccc2s1` (centres undefined), for which the Kd is > 4 mM (inactive).

On to `Cn1c(=O)c2c(ncn2CCNC2=NCCC2)n(C)c1=O`, for which the Kd is > 4 mM (inactive).

Take `S=C(c1ccc(N2CCOCC2)cc1)N1CCOCC1`: the Kd was > 4 mM (inactive).

With `COc1cc(OC)c2c(=O)c(-c3ccc4c(c3)OCO4)coc2c1`, the Kd is > 4 mM (inactive).

With `OCc1ccccc1O[C@@H]1O[C@H](CO)[C@@H](O)[C@H](O)[C@H]1O`, the Kd is > 4 mM (inactive).

For `COc1cccc(N2CCNCC2)c1`, the Kd was > 4 mM (inactive).

For the molecule `CCN1CCc2c(sc(N)c2C(N)=O)C1`, the Kd was > 4 mM (inactive).

On to `OC[C@@H](O)[C@@H](O[C@@H]1O[C@H](CO)[C@@H](O)[C@H](O)[C@H]1O)[C@H](O)[C@@H](O)CO`, for which the Kd was > 4 mM (inactive).

Turning to `C=C1C2CC[C@@]3(C)[C@H](c4ccoc4)OC(=O)C[C@]13O[C@H]1CC(=O)C(C)(C)[C@H](C(OC(C)=O)C(=O)OC)[C@@]21C` (some centres undefined), the Kd is > 4 mM (inactive).

Regarding `NC(=O)/C=C/C(=O)Nc1ccccc1`, the Kd was > 4 mM (inactive).

For `O=C1NC(=O)/C(=C/c2ccc(O)cc2)N1`, the Kd is > 4 mM (inactive).

Consider `O=C(Nc1ccc2c(c1)OCO2)c1cccc(F)c1`, for which the Kd is > 4 mM (inactive).

With `O=P(O)(Cc1ccccc1)c1ccccc1`, the Kd was > 4 mM (inactive).

With `Cc1nc2sc3c(c2c(=N)n1N)CC(C)(C)OC3`, the Kd was > 4 mM (inactive).

Regarding `O=C1COc2cc(O)ccc21`, the Kd is > 4 mM (inactive).

As to `O=C(CSc1ncn[nH]1)c1ccc2c(c1)OCO2`, the Kd is > 4 mM (inactive).

As to `NC(=O)CSCc1ccc(Br)cc1`, the Kd was > 4 mM (inactive).

As for `OCc1cccs1`, the Kd is > 4 mM (inactive).

`O=C1N/C(=N\c2ccccn2)SC1Cc1ccccc1` (centres undefined): the Kd was > 4 mM (inactive).

Take `CC(C)=CCCC1(C)C=Cc2c(O)c3c(c(CC=C(C)C)c2O1)OC12C(=CCCC1C(C)(C)O[C@@]2(C/C=C(\C)C(=O)O)C(=O)O)C3=O` (some centres undefined): the Kd was > 4 mM (inactive).

For the molecule `Cc1ccc(C)n1NC(=O)c1cccs1`, the Kd was > 4 mM (inactive).

For `Cc1nc(N)sc1C(=O)N/N=C/c1ccncc1`, the Kd was > 4 mM (inactive).

In the case of `Nc1ncnc2c1ncn2[C@@H]1O[C@H](CO)[C@@H](O)[C@H]1O`, the Kd is > 4 mM (inactive).

In the case of `Nc1ccc(N2CCCCC2)cc1`, the Kd was > 4 mM (inactive).

As for `CC1(C)C(=O)C=C[C@@]2(C)C1CC(=O)[C@]1(C)C2CC[C@@]2(C)[C@H](c3ccoc3)OC(=O)[C@H]3O[C@]321` (some centres undefined), the Kd was > 4 mM (inactive).

With `CC(C)(C)NC(=O)CN1C(=O)c2ccccc2S1(=O)=O`, the Kd was > 4 mM (inactive).

`C=C1C([C@]2(C)C(CC(=O)OC)[C@@](C)(COC(C)=O)OC(=O)C[C@@H]2OC(C)=O)[C@@H](OC=O)[C@H](OC(=O)C(O)C(C)CC)[C@@]2(C)[C@H](c3ccoc3)CC(=O)C12O` (some centres undefined): the Kd was > 4 mM (inactive).

As for `Cc1ccccc1NC(=O)N1CCOCC1`, the Kd was > 4 mM (inactive).

For the molecule `O=C(Cc1c(F)cccc1Cl)Nc1ccon1`, the Kd is > 4 mM (inactive).

Turning to `O=C1CSC(=Nc2ccc(C(=O)O)cc2)N1`, the Kd is > 4 mM (inactive).

With `COC(=O)c1oc2ccc(Cl)cc2c1NC(C)=O`, the Kd is > 4 mM (inactive).

Take `O=C1CSC2(CN3CCC2CC3)N1` (centres undefined): the Kd is > 4 mM (inactive).

In the case of `Brc1cccc(-c2nnco2)c1`, the Kd was > 4 mM (inactive).

On to `Cc1[nH]c2ccccc2c(=O)c1CO`, for which the Kd is > 4 mM (inactive).

Regarding `c1ccc2c(c1)ncn2CCn1cnc2ccccc21`, the Kd is > 4 mM (inactive).

As to `O=c1cnnc(NCc2ccc(F)cc2)[nH]1`, the Kd was > 4 mM (inactive).

Take `Nc1nc(=S)n2c(n1)oc1ccccc12`: the Kd was > 4 mM (inactive).

Consider `O=S1(=O)CCC(Nc2ccccc2)C1` (centres undefined), for which the Kd was > 4 mM (inactive).

On to `Nc1nnc(SCc2cccnc2)s1`, for which the Kd was > 4 mM (inactive).

Turning to `COc1ccc(CN2CCNC(=O)C2CC(=O)O)cc1C` (centres undefined), the Kd was > 4 mM (inactive).

With `O=c1c(-c2cc(O)c(O)c(O)c2)coc2cc(O)c(O)c(O)c12`, the Kd was > 4 mM (inactive).

For the molecule `CN1C2CC(OC(=O)[C@H](CO)c3ccccc3)C[C@H]1[C@H]1OC21` (some centres undefined), the Kd is > 4 mM (inactive).

On to `CN1C(=O)c2ccc(C(=O)NC3CCCCC3)cc2C1=O`, for which the Kd was > 4 mM (inactive).

Turning to `CC(C)=CCc1c2c(c3occ(-c4ccc(O)c(O)c4)c(=O)c3c1O)C=CC(C)(C)O2`, the Kd is > 4 mM (inactive).

Regarding `Cn1nc(C(=O)NC2CCCCC2)c2ccccc2c1=O`, the Kd is > 4 mM (inactive).

Consider `CS(=O)(=O)Nc1nnc(Cc2ccccc2)s1`, for which the Kd was > 4 mM (inactive).

With `O=C(c1ccc(F)cc1)N1CCN(c2ncccn2)CC1`, the Kd is > 4 mM (inactive).

Turning to `COc1cc(O)c2c(=O)cc(-c3ccc(OC)c(-c4c(O)cc(O)c5c(=O)cc(-c6ccc(O)cc6)oc45)c3)oc2c1`, the Kd was > 4 mM (inactive).

Regarding `O=C1CSC(=Nc2ccccc2)N1`, the Kd is > 4 mM (inactive).

As for `O=C1Nc2ccccc2C1(O)Cc1ccncc1` (centres undefined), the Kd is > 4 mM (inactive).

Take `OCn1nnn(-c2ccccc2)c1=S`: the Kd was > 4 mM (inactive).

Turning to `CC1=CC(C)C(C(=O)O)C(C(=O)N2CCN(C)CC2)C1` (centres undefined), the Kd was > 4 mM (inactive).

Regarding `C[N+](C)(C)CC(O)CC(=O)O` (centres undefined), the Kd was > 4 mM (inactive).

For the molecule `COCC(=O)Nc1cccc2ccccc12`, the Kd is > 4 mM (inactive).

On to `CC(=O)c1cccc(NC(=O)N2CCc3ccccc3C2)c1`, for which the Kd is > 4 mM (inactive).

For `Cc1cc(=O)n(CCc2ccccc2)c(O)c1C#N`, the Kd was > 4 mM (inactive).

With `CC1=C2[C@H]3OC(=O)[C@@H](C)[C@@H]3CC[C@@]2(C)C=CC1=O`, the Kd is > 4 mM (inactive).

For `CCNC(=S)Nc1c(C)n(C)n(-c2ccccc2)c1=O`, the Kd was > 4 mM (inactive).

Consider `Cn1ccnc1SCc1cc(=O)[nH]c2ccccc12`, for which the Kd was > 4 mM (inactive).

For the molecule `Cc1cn2c(-c3cccnc3)nnc2s1`, the Kd is > 4 mM (inactive).

On to `COc1ccc(-c2coc3cc(OC(C)=O)cc(OC(C)=O)c3c2=O)cc1`, for which the Kd is > 4 mM (inactive).
